This is an account of results in PMC6934184, “Selective DNA-PKcs inhibition extends the therapeutic index of localized radiotherapy and chemotherapy” (The Journal of Clinical Investigation, 2019).

In general, inhibition refers to the change of the read-out against control, counted positive when it falls. Read a low inhibition as little suppression.

This test addresses T1, PRKCN (PKD3) (Homo sapiens, UniProt O94806).
T1 construct: purchased Thermo Fisher Scientific (Life Technologies) SelectScreen
Description: SelectScreen Z'LYTE. It counts as biochemical. In short, it runs like this: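 SelectScreen broad panel; activity (Z'LYTE, Adapta) plus binding formats. ATP: Km app for CSF1R Z'LYTE; 10 for CAMK1 Adapta. Readout = % per kinase.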

T1 sequence (O94806 whole entry): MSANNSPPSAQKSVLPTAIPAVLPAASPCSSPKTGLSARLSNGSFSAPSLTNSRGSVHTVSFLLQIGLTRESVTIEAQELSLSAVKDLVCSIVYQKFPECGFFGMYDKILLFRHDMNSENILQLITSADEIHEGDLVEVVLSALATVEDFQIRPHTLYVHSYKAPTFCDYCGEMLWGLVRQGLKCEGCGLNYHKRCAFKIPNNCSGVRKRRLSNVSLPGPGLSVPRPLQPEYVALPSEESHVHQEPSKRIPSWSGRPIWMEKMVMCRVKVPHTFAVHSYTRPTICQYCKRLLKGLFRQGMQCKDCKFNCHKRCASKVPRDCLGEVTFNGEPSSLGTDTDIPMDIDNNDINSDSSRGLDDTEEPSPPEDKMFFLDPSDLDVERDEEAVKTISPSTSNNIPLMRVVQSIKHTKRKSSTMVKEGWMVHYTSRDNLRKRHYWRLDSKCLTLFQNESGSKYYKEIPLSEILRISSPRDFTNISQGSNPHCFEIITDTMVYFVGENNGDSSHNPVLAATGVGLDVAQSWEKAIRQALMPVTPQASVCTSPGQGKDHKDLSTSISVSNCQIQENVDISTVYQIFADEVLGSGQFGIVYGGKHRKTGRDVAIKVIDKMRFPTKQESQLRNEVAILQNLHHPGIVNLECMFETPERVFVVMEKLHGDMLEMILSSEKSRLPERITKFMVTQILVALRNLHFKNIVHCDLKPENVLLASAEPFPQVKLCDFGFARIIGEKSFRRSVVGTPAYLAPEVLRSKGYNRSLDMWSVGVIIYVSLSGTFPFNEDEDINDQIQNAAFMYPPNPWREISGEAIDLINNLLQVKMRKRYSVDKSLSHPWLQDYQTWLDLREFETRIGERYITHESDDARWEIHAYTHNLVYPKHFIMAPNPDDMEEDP

`CN(C(=O)CN1CCOCC1)c1ccc2sc3c(-c4cccc5c(=O)cc(N6CC7CCC(C6)O7)oc45)cccc3c2c1` [NU5455] came in with an inhibition at 1 µM of 10.7%.
